Data from patent US9981999B2, “Neprilysin inhibitors” (THERAVANCE BIOPHARMA R&D IP, LLC, priority 2012, dated 2018).

Target: T1, human neprilysin (EC 3.4.24.11; NEP) (Homo sapiens, UniProt P08473)
T1 construct: purchased R&D Systems, Minneapolis, MN 1182-ZN
Assay: In vitro enzyme inhibition assay at human NEP (fluorogenic peptide substrate)
Type: biochemical
Details: recombinant human NEP; fluorogenic substrate Mca-D-Arg-Arg-Leu-Dap-(Dnp)-OH; 37° C., pH 7.5; read-out: pKi value at human NEP (converted)
Method: The inhibitory activities of compounds at human and rat neprilysin (EC 3.4.24.11; NEP) and human angiotensin converting enzyme (ACE) were determined using in vitro assays as described below.
Recombinant human NEP and recombinant human ACE were obtained commercially (R&D Systems, Minneapolis, MN, catalog numbers 1182-ZN and 929-ZN, respectively). The fluorogenic peptide substrate Mca-D-Arg-Arg-Leu-Dap-(Dnp)-OH (Medeiros et al. (1997) Braz. J. Med. Biol. Res. 30:1157-62; Anaspec, San Jose, Calif.) and Abz-Phe-Arg-Lys(Dnp)-Pro-OH (Araujo et al. (2000) Biochemistry 39:8519-8525; Bachem, Torrance, Calif.) were used in the NEP and ACE assays respectively.
The assays were performed in 384-well white opaque plates at 37° C. using the fluorogenic peptide substrates at a concentration of 10 µM in Assay Buffer (NEP: 50 mM HEPES, pH 7.5, 100 mM NaCl, 0.01% polyethylene glycol sorbitan monolaurate (Tween-20), 10 μM ZnSO4; ACE: 50 mM HEPES, pH 7.5, 100 mM NaCl, 0.01% Tween-20, 1 μM ZnSO4).
Test compounds were assayed over the range of concentrations from […] to 20 μM. Test compounds were added to the enzymes and incubated for 30 minute at 37° C. prior to initiating the reaction by the addition of substrate. […]
Plates were read on a fluorometer with excitation and emission wavelengths set to 320 nm and 405 nm, respectively. […]

T1 sequence (P08473 52-750 limits assumed): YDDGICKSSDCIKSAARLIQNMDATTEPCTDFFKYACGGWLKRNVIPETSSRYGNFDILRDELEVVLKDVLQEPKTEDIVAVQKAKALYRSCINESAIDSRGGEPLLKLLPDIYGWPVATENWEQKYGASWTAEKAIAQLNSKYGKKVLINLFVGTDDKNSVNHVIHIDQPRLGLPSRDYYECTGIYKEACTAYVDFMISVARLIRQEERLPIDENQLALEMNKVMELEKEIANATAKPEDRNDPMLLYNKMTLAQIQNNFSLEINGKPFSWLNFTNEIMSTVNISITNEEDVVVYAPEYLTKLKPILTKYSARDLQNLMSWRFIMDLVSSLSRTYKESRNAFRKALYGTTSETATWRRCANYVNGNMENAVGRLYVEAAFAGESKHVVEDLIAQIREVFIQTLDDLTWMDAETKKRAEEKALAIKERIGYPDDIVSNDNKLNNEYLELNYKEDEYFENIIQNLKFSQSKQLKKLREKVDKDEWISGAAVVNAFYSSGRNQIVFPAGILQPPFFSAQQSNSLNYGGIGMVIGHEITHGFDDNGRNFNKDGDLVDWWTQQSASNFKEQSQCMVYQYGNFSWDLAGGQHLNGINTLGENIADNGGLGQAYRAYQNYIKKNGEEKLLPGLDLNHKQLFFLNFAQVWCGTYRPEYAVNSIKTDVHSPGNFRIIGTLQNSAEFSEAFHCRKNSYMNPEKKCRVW

Ki: ≤ 1 nM
SMILES: CC(=O)c1cc(C(=O)NN(Cc2ccc(-c3cc(Cl)ccc3F)cc2)C[C@@H](O)C(=O)O)[nH]n1 [Example 6A, (R)-3-[N′-(5-Acetyl-2H-pyrazole-3-carbonyl)-N-(5′-chloro-2′-fluorobiphenyl-4-ylmethyl)hydrazino]-2-hydroxypropionic Acid]
